Reference: patent US20040266766A1, “Selective urokinase inhibitors” (Wilex AG, priority 2001, published 2004)
Where a name gives a salt, the structure may show the parent alone. Read-outs that look alike come from different tables or passages of the source.

How the values were obtained:
[1] = molecular target: T1, urokinase (uPA) (Homo sapiens, UniProt P00749); assay: In vitro inhibition of urokinase (Ki according to Dixon, chromogenic substrate); type: biochemical
T1 construct: purchased Calbiochem-Novabiochem GmbH, Bad Soden, Germany
Protocol: In order to determine the inhibitory activity, 200 μl Tris buffer (0.05 mol/l containing the inhibitor, 0.154 mol/l NaCl, pH 8.0), 25 μl substrate (Pefachrome uPA, Pefachrome PL or Pefabloc TH in H2O; Pentapharm Ltd, Basle, Switzerland) and 50 μl urokinase (Calbiochem-Novabiochem GmbH, Bad Soden, Germany) or another appropriate protease e.g. plasmin, thrombin or FXa are incubated for 10 minutes at 30° C. After ca. 30 minutes and 30 cycles the absorption is determined at 405 nm by means of a microplate reader (Mediators PHL, Aureon Biosystems, Vienna, Austria). The Ki values were determined according to Dixon by linear regression using a computer program.

[2] = Oral bioavailability and plasma kinetics in mice (serum concentration); type: in vivo, Balb/c mice; conditions: mouse; for concentration at 20 min / concentration at 40 min / concentration at 60 min: female, Balb/c, serum, po, read-out: c in the serum 1st analysis; for concentration at 20 min: sample at 20 minutes; for concentration at 40 min: sample at 40 minutes; for concentration at 60 min: sample at 60 minutes; for c in the serum 1st analysis: 10 mg/kg i.v.
[3] = summary table, read-out: Ki uPA

For `N=C(N)Nc1ccc(CNC(=O)CNC(=O)C(CO)NC(=O)Nc2ccc([N+](=O)[O-])cc2)cc1` (stereo not drawn) [WX-C342, 4-Nitrophenyl-aminocarbonyl-(D)-Ser-Gly-(4-guanidinobenzyl)amide hydrochloride], which Ki ([1]; read-out: Ki uPA) is on record?
Its Ki is 4900 nM.

With `CCCCS(=O)(=O)NC(CO)C(=O)NCC(=O)NCc1ccc(NC(=N)N)cc1` (stereo not drawn) [WX-C300, n-Butyl-sulfonyl-(D)-Ser-Gly-(4-guanidinobenzyl)amide hydrochloride] as the compound, how does the Ki ([1]; list of test substances of Example 17, read-out: Ki human uPA) read?
Its Ki is 270 nM.

What about the Ki ([1]; read-out: Ki uPA) of the same compound?
Its Ki is 270 nM.

What about the Ki [1, 3] of the same compound?
The Ki was 270 nM.

What about the concentration at 20 min ([2]; 30 mg/kg, 30 mg/kg oral) of the same compound?
Its concentration at 20 min is 200 ng/mL.

And the concentration at 40 min ([2]; 30 mg/kg, 30 mg/kg oral)?
Its concentration at 40 min is 200 ng/mL.

What about the concentration at 60 min ([2]; 30 mg/kg, 30 mg/kg oral) of the same compound?
Its concentration at 60 min is 200 ng/mL.

What about the concentration at 20 min ([2]; 300 mg/kg, 300 mg/kg oral) of the same compound?
Its concentration at 20 min is 1500 ng/mL.

What about the concentration at 40 min ([2]; 300 mg/kg, 300 mg/kg oral) of the same compound?
The concentration at 40 min was 4600 ng/mL.

What about the concentration at 60 min ([2]; 300 mg/kg, 300 mg/kg oral) of the same compound?
The concentration at 60 min was 600 ng/mL.

And the “c in the serum 1st analysis” value ([2]; time of sample collection 0)?
The value was 94.4 µg/mL.

And the “c in the serum 1st analysis” value ([2]; time of sample collection 10)?
Its value is 11.0 µg/mL.

And the “c in the serum 1st analysis” value ([2]; time of sample collection 30)?
The value was 1.3 µg/mL.

Which Ki ([1]; read-out: Ki uPA) does the source give for `COc1cc(NC(=O)NC(CO)C(=O)NCC(=O)NCc2ccc(NC(=N)N)cc2)cc(OC)c1OC` (stereo not drawn) [WX-C308, 3,4,5-Tri-methoxyphenyl-aminocarbonyl-(D)-Ser-Gly-(4-guanidinobenzyl)amide hydrochloride] here?
Its Ki is over 20000 nM.

Which Ki ([1]; read-out: Ki uPA) does the source give for `CC1(C)C2CCC1(CS(=O)(=O)NC(CO)C(=O)NCC(=O)NCc1ccc(NC(=N)N)cc1)C(=O)C2` (stereo not drawn) [WX-C296, (−)-Camphor-10-sulfonyl-(D)-Ser-Gly-4-guanidinobenzyl)amide hydrochloride] here?
Its Ki is 450 nM.

For `N=C(N)Nc1ccc(CNC(=O)CNC(=O)C(CO)NC(=O)Nc2ccc(Br)cc2Br)cc1` (stereo not drawn) [WX-C338, 2,4-Dibromophenyl-aminocarbonyl-(D)-Ser-Gly-(4-guanidinobenzyl)amide hydrochloride], which Ki ([1]; read-out: Ki uPA) is on record?
Its Ki is over 20000 nM.

For `N=C(N)Nc1ccc(CNC(=O)CNC(=O)C(CO)NC(=O)Nc2cccc3ccccc23)cc1` (stereo not drawn) [WX-C328, 1-Naphthyl-aminocarbonyl-(D)-Ser-Gly-(4-guanidinobenzyl)amide hydrochloride], which Ki ([1]; read-out: Ki uPA) is on record?
The Ki was over 20000 nM.

With `COc1ccc(NC(=O)NC(CO)C(=O)NCC(=O)NCc2ccc(NC(=N)N)cc2)cc1` (stereo not drawn) [WX-C306, 4-Methoxyphenyl-aminocarbonyl-(D)-Ser-Gly-(4-guanidinobenzyl)amide hydrochloride] as the compound, how does the Ki ([1]; read-out: Ki uPA) read?
The Ki was 4100 nM.

For `N=C(N)Nc1ccc(CNC(=O)CNC(=O)C(CO)NC(=O)Nc2ccccc2Br)cc1` (stereo not drawn) [WX-C322, 2-Bromophenyl-aminocarbonyl-(D)-Ser-Gly-(4-guanidinobenzyl)amide hydrochloride], which Ki ([1]; read-out: Ki uPA) is on record?
The Ki was over 20000 nM.

For `N=C(N)Nc1ccc(CNC(=O)CNC(=O)C(CN)NS(=O)(=O)Cc2ccccc2)cc1` (stereo not drawn) [WX-M6, Benzylsulfonyl-(D)-Dap-Gly-(4-guanidinobenzyl)amide bis-hydrochloride], which Ki ([1]; read-out: Ki uPA) is on record?
Its Ki is 150 nM.

For `N=C(N)Nc1ccc(CNC(=O)CNC(=O)C(CO)NC(=O)Nc2ccccc2Cl)cc1` (stereo not drawn) [WX-C304, 2-Chlorophenyl-aminocarbonyl-(D)-Ser-Gly-(4-guanidinobenzyl)amide hydrochloride], which “Ki uPA” value [1] is on record?
Its value is “no inh. *)”.

With `N=C(N)Nc1ccc(CNC(=O)CNC(=O)C(CO)NC(=O)Nc2ccc3c(c2)OCO3)cc1` (stereo not drawn) [WX-C332, 3,4-Methylenedioxyphenyl-aminocarbonyl-(D)-Ser-Gly-(4-guanidinobenzyl)amide hydrochloride] as the compound, how does the Ki ([1]; read-out: Ki uPA) read?
Its Ki is over 20000 nM.

For `N=C(N)Nc1ccc(CNC(=O)CNC(=O)C(CO)NC(=O)Nc2ccc(Oc3ccccc3)cc2)cc1` (stereo not drawn) [WX-C310, 4-Phenoxyphenyl-aminocarbonyl-(D)-Ser-Gly-(4-guanidinobenzyl)amide hydrochloride], which Ki ([1]; read-out: Ki uPA) is on record?
Its Ki is 2000 nM.

With `CCOC(=O)c1ccc(NC(=O)NC(CO)C(=O)NCC(=O)NCc2ccc(NC(=N)N)cc2)cc1` (stereo not drawn) [WX-C336, 4-Ethyloxycarbonylphenyl-aminocarbonyl-(D)-Ser-Gly-(4-guanidinobenzyl)amide hydrochloride] as the compound, how does the Ki ([1]; read-out: Ki uPA) read?
The Ki was 13100 nM.

Which Ki ([1]; read-out: Ki uPA) does the source give for `CCOC(=O)c1cccc(NC(=O)NC(CO)C(=O)NCC(=O)NCc2ccc(NC(=N)N)cc2)c1` (stereo not drawn) [WX-C312, 3-Ethoxycarbonylphenyl-aminocarbonyl-(D)-Ser-Gly-(4-guanidinobenzyl)amide hydrochloride] here?
Its Ki is 1400 nM.

Which results are given for `CC1(C)C2CCC1(CS(=O)(=O)NC(CO)C(=O)NCC(=O)NCc1ccc(NC(=N)N)cc1)C(=O)C2` (stereo not drawn) [WX-C298, (+)-Camphor-10-sulfonyl-(D)-Ser-Gly-(4-guanidinobenzyl)amide hydrochloride]?
Ki ([1]; read-out: Ki uPA): 160 nM; Ki [1, 3]: 160 nM; concentration at 20 min ([2]; 30 mg/kg, 30 mg/kg oral): 200 ng/mL; concentration at 40 min ([2]; 30 mg/kg, 30 mg/kg oral): 400 ng/mL; concentration at 60 min ([2]; 30 mg/kg, 30 mg/kg oral): 100 ng/mL; concentration at 20 min ([2]; 300 mg/kg, 300 mg/kg oral): 17000 ng/mL; concentration at 40 min ([2]; 300 mg/kg, 300 mg/kg oral): 10700 ng/mL; concentration at 60 min ([2]; 300 mg/kg, 300 mg/kg oral): 7000 ng/mL; c in the serum 1st analysis ([2]; time of sample collection 0): 66.2 µg/mL; c in the serum 1st analysis ([2]; time of sample collection 10): 18.3 µg/mL; c in the serum 1st analysis ([2]; time of sample collection 30): 2.1 µg/mL

With `CCCCCCCCS(=O)(=O)NC(CO)C(=O)NCC(=O)NCc1ccc(NC(=N)N)cc1` (stereo not drawn) [WX-C302, n-Octyl-sulfonyl-(D)-Ser-Gly-(4-guanidinobenzyl)amide hydrochloride] as the compound, how does the Ki ([1]; read-out: Ki uPA) read?
Its Ki is 500 nM.

Which Ki ([1]; read-out: Ki uPA) does the source give for `N=C(N)Nc1ccc(CNC(=O)CNC(=O)C(CO)NC(=O)Cc2ccc(O)c(O)c2)cc1` (stereo not drawn) [WX-571, 3,4-Dihydroxyphenyl-acetyl-(D)-Ser-Gly-(4-guanidinobenzyl)amide hydrochloride] here?
Its Ki is 14700 nM.

Which Ki ([1]; read-out: Ki uPA) does the source give for `CC(=O)c1ccc(NC(=O)NC(CO)C(=O)NCC(=O)NCc2ccc(NC(=N)N)cc2)cc1` (stereo not drawn) [WX-C330, 4-Acetylphenyl-aminocarbonyl-(D)-Ser-Gly-(4-guanidinobenzyl)amide hydrochloride] here?
The Ki was over 20000 nM.

For `N=C(N)Nc1ccc(CNC(=O)CNC(=O)C(CO)NC(=O)Nc2cccc(Cl)c2Cl)cc1` (stereo not drawn) [WX-C334, 2,3-Dichlorophenyl-aminocarbonyl-(D)-Ser-Gly-(4-guanidinobenzyl)amide hydrochloride], which Ki ([1]; read-out: Ki uPA) is on record?
The Ki was over 20000 nM.

Which “Ki uPA” value [1] does the source give for `N=C(N)Nc1ccc(CNC(=O)CNC(=O)C(CO)NC(=O)Nc2cccc(Cl)c2)cc1` (stereo not drawn) [WX-C292, 3-Chlorophenyl-aminocarbonyl-(D)-Ser-Gly-(4-guanidinobenzyl)amide hydrochloride] here?
The value was “no inh. *)”.

Which Ki ([1]; read-out: Ki uPA) does the source give for `N=C(N)Nc1ccc(CNC(=O)CNC(=O)C(CO)NC(=O)Nc2ccc3c(c2)OCCO3)cc1` (stereo not drawn) [WX-C326, 2,3-Dihydro-1,4-benzodioxin-6-yl-aminocarbonyl-(D)-Ser-Gly-(4-guanidinobenzyl)amide hydrochloride] here?
The Ki was over 20000 nM.

Which Ki ([1]; read-out: Ki uPA) does the source give for `N=C(N)Nc1ccc(CNC(=O)CNC(=O)C(CNC(=O)OCc2ccccc2)NS(=O)(=O)Cc2ccccc2)cc1` (stereo not shown) [WX-M5, benzylsulfonyl-(D)-Dap(Z)-Gly-(4-guanidinobenzyl)amide hydrochloride] here?
The Ki was 500 nM.

With `CC(=O)c1cccc(NC(=O)NC(CO)C(=O)NCC(=O)NCc2ccc(NC(=N)N)cc2)c1` (stereo not drawn) [WX-C314, 3-Acetylphenyl-aminocarbonyl-(D)-Ser-Gly-(4-guanidinobenzyl)amide hydrochloride] as the compound, how does the “Ki uPA” value [1] read?
The value was “no inh. *)”.

Which Ki ([1]; read-out: Ki uPA) does the source give for `N=C(N)Nc1ccc(CNC(=O)CNC(=O)C(CO)NC(=O)NC23CC4CC(CC(C4)C2)C3)cc1` (stereo not drawn) [WX-C320, 1-Adamantyl-aminocarbonyl-(D)-Ser-Gly-(4-guanidinobenzyl)amide hydrochloride] here?
The Ki was over 20000 nM.

With `N=C(N)Nc1ccc(NNC(=O)CNC(=O)[C@@H](CO)NS(=O)(=O)Cc2ccccc2)cc1` [WX-600, N-[N′-guanidino-phenyl)-hydrazinocarbonyl-methyl]-3-hydroxy-2-phenyl-methanesulfonylamino-propionamide hydrochloride] as the compound, how does the Ki ([1]; read-out: Ki uPA) read?
Its Ki is 2100 nM.
